Experimental data as given in ChEMBL document CHEMBL4152303, “Structure-activity relationships of imidazothiazinones and analogs as antagonists of the cannabinoid-activated orphan G protein-coupled receptor GPR18” (Eur J Med Chem, 2018).

Legend:
[1] = molecular target: T1, N-arachidonyl glycine receptor (Homo sapiens) (UniProt Q14330); experiment: (§1) Antagonist activity at recombinant human GPR18 expressed in CHO cells assessed as inhibition of delta9-THC-induced beta-arrestin recruitment preincubated for 60 mins followed by delta9-THC addition for 90 mins measured for 1 sec by luminescence assay; type: functional, cell-based
T1 sequence (whole entry): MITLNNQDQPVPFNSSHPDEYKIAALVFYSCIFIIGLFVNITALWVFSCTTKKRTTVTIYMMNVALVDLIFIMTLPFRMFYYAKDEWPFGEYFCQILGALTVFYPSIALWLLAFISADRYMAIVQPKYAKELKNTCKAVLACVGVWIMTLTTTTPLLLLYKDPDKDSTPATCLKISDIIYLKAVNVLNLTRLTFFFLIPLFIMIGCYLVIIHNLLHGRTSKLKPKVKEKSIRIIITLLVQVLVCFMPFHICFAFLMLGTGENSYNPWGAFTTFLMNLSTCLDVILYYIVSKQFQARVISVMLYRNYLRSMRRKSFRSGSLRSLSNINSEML

[2] = molecular target: T2, N-arachidonyl glycine receptor (Homo sapiens, UniProt Q14330); experiment: as §1; type: functional, cell-based
T2 sequence (Q14330 whole entry): T1 sequence (whole entry)

[3] = molecular target: T1, N-arachidonyl glycine receptor (Homo sapiens); experiment: (§2) Agonist activity at recombinant human GPR18 expressed in CHO cells assessed as increase in beta-arrestin recruitment incubated for 60 mins measured for 1 sec by luminescence assay; type: functional, cell-based
[4] = molecular target: T2, N-arachidonyl glycine receptor; experiment: as §2; type: functional, cell-based
[5] = molecular target: T3, G-protein coupled receptor 55 (Homo sapiens, UniProt Q9Y2T6); experiment: Antagonist activity at recombinant human GPR55 expressed in CHO cells assessed as inhibition of lysophosphatidylinositol-induced beta-arrestin recruitment preincubated for 60 mins followed by lysophosphatidylinositol addition for 90 mins measured for 1 sec by luminescence assay; type: functional, cell-based
[6] = molecular target: T3, G-protein coupled receptor 55; experiment: Agonist activity at recombinant human GPR55 expressed in CHO cells assessed as increase in beta-arrestin recruitment incubated for 60 mins measured for 1 sec by luminescence assay; type: functional, cell-based
[7] = molecular target: Cannabinoid receptor 1 (Homo sapiens, UniProt P21554); experiment: Displacement of [3H]CP55940 from recombinant human CB1 receptor expressed in CHO cell membranes after 2 hrs by liquid scintillation counting method; details: for inhibition: concentration not given here
[8] = molecular target: Cannabinoid receptor 2 (Homo sapiens, UniProt P34972); experiment: Displacement of [3H]CP55940 from recombinant human CB2 receptor expressed in CHO cell membranes after 2 hrs by liquid scintillation counting method; details: for inhibition: concentration not given here
[9] = molecular target: T1, N-arachidonyl glycine receptor (Homo sapiens); experiment: Competitive antagonist activity at recombinant human GPR18 expressed in CHO cells assessed as inhibition of delta9-THC-induced beta-arrestin recruitment preincubated for 60 mins followed by delta9-THC addition for 90 mins measured for 1 sec by luminescence assay; type: functional, cell-based
[10] = molecular target: T2, N-arachidonyl glycine receptor; experiment: Agonist activity at recombinant full length human GPR18 expressed in CHO cells assessed as forskolin-stimulated cAMP accumulation after 10 mins by enzyme immunoassay; type: functional, cell-based
[11] = molecular target: T2, N-arachidonyl glycine receptor; experiment: Agonist activity at recombinant human GPR18 expressed in HEK293 cells assessed as induction of p44/42 MAPK phosphorylation after 5 mins by Western blot analysis; type: functional, cell-based

T3 sequence (Q9Y2T6 whole entry): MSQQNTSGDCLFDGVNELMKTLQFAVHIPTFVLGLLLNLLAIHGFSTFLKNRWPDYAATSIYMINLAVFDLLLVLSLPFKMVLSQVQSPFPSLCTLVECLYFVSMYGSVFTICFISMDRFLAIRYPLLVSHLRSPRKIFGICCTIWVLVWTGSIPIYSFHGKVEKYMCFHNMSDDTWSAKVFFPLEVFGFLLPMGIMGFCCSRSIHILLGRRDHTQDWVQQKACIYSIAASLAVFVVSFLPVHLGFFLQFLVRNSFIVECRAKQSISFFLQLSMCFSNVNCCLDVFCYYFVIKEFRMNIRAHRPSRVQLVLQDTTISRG
Chain of Cannabinoid receptor 1 (P21554 whole entry): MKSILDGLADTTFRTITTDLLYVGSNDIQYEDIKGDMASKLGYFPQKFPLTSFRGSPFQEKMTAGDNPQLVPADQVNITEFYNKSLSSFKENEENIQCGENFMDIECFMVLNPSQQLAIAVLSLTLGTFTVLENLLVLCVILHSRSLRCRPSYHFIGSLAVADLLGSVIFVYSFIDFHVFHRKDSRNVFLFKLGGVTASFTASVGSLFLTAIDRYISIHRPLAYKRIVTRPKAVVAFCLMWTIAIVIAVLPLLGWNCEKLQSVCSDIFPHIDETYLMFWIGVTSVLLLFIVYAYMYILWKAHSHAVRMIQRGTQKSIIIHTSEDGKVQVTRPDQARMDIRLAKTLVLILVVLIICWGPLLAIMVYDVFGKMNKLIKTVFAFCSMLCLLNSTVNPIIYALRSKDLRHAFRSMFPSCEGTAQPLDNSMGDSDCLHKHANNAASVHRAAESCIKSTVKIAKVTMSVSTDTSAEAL
Chain of Cannabinoid receptor 2 (P34972 whole entry): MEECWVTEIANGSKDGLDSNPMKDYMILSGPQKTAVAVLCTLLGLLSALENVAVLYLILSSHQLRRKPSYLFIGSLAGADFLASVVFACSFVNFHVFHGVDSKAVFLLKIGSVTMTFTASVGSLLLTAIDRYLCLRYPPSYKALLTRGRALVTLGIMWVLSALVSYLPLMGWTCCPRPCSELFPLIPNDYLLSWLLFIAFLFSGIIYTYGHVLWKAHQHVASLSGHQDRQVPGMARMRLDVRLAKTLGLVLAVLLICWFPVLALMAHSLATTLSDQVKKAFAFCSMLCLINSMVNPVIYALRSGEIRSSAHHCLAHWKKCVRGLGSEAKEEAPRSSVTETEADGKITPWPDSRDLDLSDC

SMILES | Imax [1] | IC50 [2] | %max [3] | EC50 [4] | IC50 [5] | Imax [5] | %max [6] | EC50 [6] | Ki [7] | Ki [8] | inhibition [8] | Kb [9] | pKb [9] | EC50 [10] | EC50 [11] | inhibition [7] | Imax [7]
O=C1/C(=C/c2cccc(OCCCCCCOc3ccc(Cl)cc3)c2)N=C2SCCCN12 | 122% | 0.65 µM | -37% | > 10 µM | > 10 µM | 37% | -15% | > 10 µM | > 10 µM | > 10 µM | 12% | 0.626 µM | 6.2 | – | – | – | –
CCCCC/C=C\C/C=C\C/C=C\C/C=C\CCCC(=O)NCC(=O)O [ARACHIDONOYL GLYCINE] | – | – | – | – | – | – | – | – | – | – | – | – | – | 0.02 µM | 0.044 µM | – | –
O=C1NC(=S)S/C1=C\c1cccc(OCc2ccc(Cl)cc2)c1 | 22% | > 10 µM | -38% | > 10 µM | > 10 µM | -18% | 29% | > 10 µM | > 10 µM | > 10 µM | 26% | – | – | – | – | 47% | –
Cc1ccc(COc2cccc(/C=C3\N=C4SCCCN4C3=O)c2)cc1 | 61% | 3.59 µM | 2% | > 10 µM | 9.45 µM | 134% | -31% | > 10 µM | > 10 µM | > 10 µM | 25% | – | – | – | – | 22% | –
O=C1/C(=C/c2cccc(OCCCc3ccccc3)c2)N=C2SCCCN12 | 136% | 1.49 µM | -30% | > 10 µM | 6.04 µM | 132% | -49% | > 10 µM | > 10 µM | > 10 µM | 23% | – | – | – | – | 11% | –
CCc1ccc(OCCCCCCOc2cccc(/C=C3\N=C4SCCCN4C3=O)c2)cc1 | 99% | 25 µM | 0% | > 10 µM | > 10 µM | 37% | 47% | > 10 µM | > 10 µM | > 10 µM | 13% | – | – | – | – | 13% | –
O=C1NC(SCc2ccc(Cl)cc2)=N/C1=C\c1cccc(OCc2ccc(Cl)cc2)c1 | 35% | > 10 µM | 5% | > 10 µM | > 10 µM | 41% | -10% | > 10 µM | > 10 µM | > 10 µM | 30% | – | – | – | – | 36% | –
O=C1N=C2SCCN2/C1=C\c1cccc(OCc2ccc(Cl)cc2)c1 | 25% | > 10 µM | 13% | > 10 µM | > 10 µM | 19% | 2% | > 10 µM | 1.67 µM | > 10 µM | 41% | – | – | – | – | – | 60%
O=C1/C(=C/c2cccc(OCc3ccc(Cl)cc3)c2)N=C2SCCN12 | 40% | > 10 µM | 1% | > 10 µM | > 10 µM | 42% | -3% | > 10 µM | > 10 µM | > 10 µM | 28% | – | – | – | – | 18% | –
O=C1/C(=C/c2cccc(OCc3ccc(F)cc3)c2)N=C2SCCCN12 | 3% | > 10 µM | 6% | > 10 µM | 4.22 µM | 149% | -30% | > 10 µM | > 10 µM | > 10 µM | 46% | – | – | – | – | 35% | –
